How the values were obtained:
Male NMRI mice = experiment: Mouse tetrad model (in-vivo bioassay for cannabinoid activity: hot plate, hypothermia, catalepsy, sedation); details: 5 mg/kg i.v.
Description: II. In-vivo bioassay system for determination of cannabinoid activity
Substances with affinity for cannabinoid receptors are known to produce a wide range of pharmacological effects. It is also known that intravenous administration of a substance with affinity for cannabinoid receptors in mice produces analgesia , hypothermia, sedation and catalepsy. Individually, none of these effects can be considered as proof that a tested substance has affinity for cannabinoid-receptors, since all of these effects are common for various classes of centrally active agents. However, substances, which show all of these effects, i.e. substances that are active in this so-called tetrad model are considered to have affinity for the cannabinoid receptors. It has further been shown that cannabinoid receptor antagonists are higly effective in blocking the effects of a cannabinoid agonist in the mouse tetrad model.
The tetrad model is described, for example, in the publication of A. C. Howlett et al, International Union of Pharmacology XXVII. Classification of Cannabinoid Receptors, Pharmacol Rev 54, 161-202 , 2002 and David R. Compton et al., "In-vivo Characterization of a Specific Cannabinoid Receptor Antagonist (SR141716A) :Inhibition of Tetrahydrocannbinol- induced Responses and Apparent Agonist Activity", J. Pharmacol. Exp. Ther. 277 , 2, 586-594, 1996. […]
Before testing in the behavioral procedures given below, mice are acclimatized to the experimental setting. Pre-Treatment control values are determined for analgesia hot plate latency (in seconds), rectal temperature, sedation and catalepsy.
In order to determine the agonistic activty of the substance to be tested, the mice are injected intravenously with the substance to be tested or the vehicle alone. 15 minutes after injection, latency in hot plate analgesia is measured.
Rectal temperature, sedation and catalepsy are measured 20 minutes after injection.
In order to determine the antagonistic activity the identical procedure is used as for the determination of the agonistic effects, but with the difference that the substance to be evaluated for its antagonistic activity is injectected 5 minutes before the intravenous injection of 1.25 mg/kg Win-55,212 a known cannabinoid-receptor agonist.
The hot plate analgesia is determined according to the method described in Woolfe D. et al. "The evaluation of analgesic action of pethidine hydrochloride (Demerol)", J. Pharmacol. Exp. Ther. 80, 300-307,1944.
The mice are placed on a hot plate (Harvard Analgesimeter) at 55 ± 0.5 °C until they show a painful sensation by licking their paws or jumping and the time for these sensations to occur is recorded. This reading is considered the basal value (B). […]
The degree of analgesia is calculated from the formula : […]

Herg channel = Herg channel (Homo sapiens, UniProt Q12809); experiment: Herg channel affinity; format: binding; details: general statement, no method or data given
Chain of Herg channel (Q12809 whole entry): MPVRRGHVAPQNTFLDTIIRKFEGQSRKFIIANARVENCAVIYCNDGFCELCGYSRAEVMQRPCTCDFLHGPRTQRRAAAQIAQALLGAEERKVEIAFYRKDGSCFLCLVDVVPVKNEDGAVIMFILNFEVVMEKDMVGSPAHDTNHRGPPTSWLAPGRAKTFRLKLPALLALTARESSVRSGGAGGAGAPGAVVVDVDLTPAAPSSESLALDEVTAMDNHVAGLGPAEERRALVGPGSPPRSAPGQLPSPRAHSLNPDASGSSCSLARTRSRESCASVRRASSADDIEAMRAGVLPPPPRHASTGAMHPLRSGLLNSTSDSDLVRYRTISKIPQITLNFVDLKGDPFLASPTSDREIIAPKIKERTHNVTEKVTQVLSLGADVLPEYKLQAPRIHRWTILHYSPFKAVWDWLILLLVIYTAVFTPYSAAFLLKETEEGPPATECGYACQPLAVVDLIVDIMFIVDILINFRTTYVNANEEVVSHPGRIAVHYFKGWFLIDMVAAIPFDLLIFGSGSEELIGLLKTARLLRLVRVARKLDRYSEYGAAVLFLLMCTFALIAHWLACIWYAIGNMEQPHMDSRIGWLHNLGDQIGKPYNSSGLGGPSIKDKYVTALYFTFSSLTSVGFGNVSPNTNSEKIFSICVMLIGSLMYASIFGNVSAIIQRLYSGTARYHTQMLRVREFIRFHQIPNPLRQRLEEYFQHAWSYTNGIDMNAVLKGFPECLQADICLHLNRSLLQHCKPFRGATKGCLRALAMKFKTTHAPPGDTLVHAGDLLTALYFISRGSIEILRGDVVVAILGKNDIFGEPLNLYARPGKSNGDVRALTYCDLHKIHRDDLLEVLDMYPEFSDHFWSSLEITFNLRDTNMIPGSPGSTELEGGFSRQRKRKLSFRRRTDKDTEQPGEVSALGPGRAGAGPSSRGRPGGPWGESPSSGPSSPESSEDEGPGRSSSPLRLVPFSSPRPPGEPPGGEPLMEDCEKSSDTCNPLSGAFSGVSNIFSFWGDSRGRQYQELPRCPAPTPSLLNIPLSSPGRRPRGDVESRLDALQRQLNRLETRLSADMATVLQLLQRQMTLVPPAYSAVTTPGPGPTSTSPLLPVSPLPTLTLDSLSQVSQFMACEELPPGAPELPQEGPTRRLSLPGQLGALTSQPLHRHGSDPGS

What does the source list for `O=C(NN1CCCCC1)C1=NN(c2ccc(Cl)cc2Cl)C(c2ccc(Cl)cc2)C1` (centres unmarked) [Example 1, N-piperidinyl-5-(4-chlorophenyl)-1-(2,4-dichlorophenyl)-4,5-dihydro-1H-pyrazole-3-carboxamide]?
Agonistic effect A: Hot-Plate test (Male NMRI mice): 0; Agonistic effect B: Hypothermia (Male NMRI mice): 0; Agonistic effect C: Catalepsy (Male NMRI mice): 0; Agonistic effect D: Sedation (Male NMRI mice): 0

For `O=C(NN1CCCCC1)C1=NN(c2ccc(Cl)cc2Cl)C(c2ccc(Cl)cc2)C1` (stereo not drawn) [β-Polymorph, β-Polymorph of N-piperidinyl-5-(4-chlorophenyl)-1-(2,4-dichlorophenyl)-4,5-dihydro-1H-pyrazole-3-carboxamide], which Herg channel affinity (Herg channel) is on record?
The Herg channel affinity was “relatively weak”.
